{
  "source": "patent US7718658B2",
  "about": "(priority 2004, dated 2010)",
  "origin": "cited, not measured here",
  "system": "neuropathic pain",
  "conditions": "in vivo",
  "data": [
    {"molecule": "NCC1(CC(=O)O)CCCCC1", "note": "[Gabapentin]", "values": [
      {"measurement": "share of patients in whom it works", "result": 60, "unit": "%"}
    ]}
  ]
}
